Converted amounts (≈) assume the structure as drawn.
Legend:
[1] = tested on: MCF7; assay: Cytotoxicity against human MCF7 cells assessed as cell growth inhibition measured after 72 hrs by MTT assay; type: functional, cell-based; details: MCF7, 72 h
[2] = tested on: HGC-27; assay: Cytotoxicity against human HGC-27 cells assessed as cell growth inhibition measured after 72 hrs by MTT assay; type: functional, cell-based; details: HGC-27, 72 h
[3] = tested on: Staphylococcus epidermidis; assay: Antibacterial activity against Staphylococcus epidermidis ATCC12228 assessed as inhibition of bacterial growth incubated for 18 hrs by two-fold serial dilution method; type: functional
[4] = tested on: HepG2; assay: Cytotoxicity against human HepG2 cells assessed as cell growth inhibition measured after 72 hrs by MTT assay; type: functional, cell-based; details: HepG2, 72 h
[5] = tested on: Enterococcus faecium; assay: Antibacterial activity against Enterococcus faecium ATCC19434 assessed as inhibition of bacterial growth incubated for 18 hrs by two-fold serial dilution method; type: functional
[6] = tested on: U-87 MG; assay: Cytotoxicity against human U87 cells assessed as cell growth inhibition measured after 72 hrs by MTT assay; type: functional, cell-based, U-87MG ATCC
[7] = tested on: Staphylococcus aureus; assay: Antibacterial activity against methicillin-sensitive Staphylococcus aureus ATCC 29213 assessed as inhibition of bacterial growth incubated for 18 hrs by two-fold serial dilution method; type: functional
[8] = tested on: Staphylococcus aureus; assay: Antibacterial activity against methicillin-resistant Staphylococcus aureus ATCC 43300 assessed as inhibition of bacterial growth incubated for 18 hrs by two-fold serial dilution method; type: functional
[9] = tested on: HT-29; assay: Cytotoxicity against human HT-29 cells assessed as cell growth inhibition measured after 72 hrs by MTT assay; type: functional, cell-based; details: HT-29, 72 h
[10] = tested on: Mycoplasmoides pneumoniae; assay: Antibacterial activity against Mycoplasma pneumoniae ATCC15531 assessed as inhibition of bacterial growth incubated for 18 hrs by two-fold serial dilution method; type: functional
[11] = tested on: Mycoplasmoides pneumoniae; assay: Antibacterial activity against drug resistant Mycoplasma pneumoniae assessed as inhibition of bacterial growth incubated for 18 hrs by two-fold serial dilution method; type: functional
[12] = tested on: Mycoplasmoides pneumoniae; assay: Antibacterial activity against Mycoplasma pneumoniae ATCC29342 assessed as inhibition of bacterial growth incubated for 18 hrs by two-fold serial dilution method; type: functional

Row | Compound | IC50 [1] [µM] | IC50 [2] [µM] | MIC [3] [µg/mL] | IC50 [4] [µM] | MIC [5] [µg/mL] | IC50 [6] [µM] | MIC [7] [µg/mL] | MIC [8] [µg/mL] | IC50 [9] [µM] | MIC [10] [µg/mL] | MIC [11] [µg/mL] | MIC [12] [µg/mL]
1 | C=C[C@]1(C)C[C@@H](OC(=O)CNC(=O)Nc2ccc(Cl)cc2)[C@]2(C)[C@H](C)CC[C@]3(CCC(=O)[C@H]32)[C@@H](C)[C@@H]1O | > 10 | > 10 | > 64 | > 10 | 16 (≈ 30.1 µM) | > 10 | 0.25 (≈ 0.471 µM) | 0.25 (≈ 0.471 µM) | > 10 |  |  | 
2 | C=C[C@]1(C)C[C@@H](OC(=O)CNC(=O)Nc2cccc(C)c2)[C@]2(C)[C@H](C)CC[C@]3(CCC(=O)[C@H]32)[C@@H](C)[C@@H]1O |  |  | > 64 |  | 16 (≈ 31.3 µM) |  | 0.125 (≈ 0.245 µM) | 0.5 (≈ 0.979 µM) |  |  |  | 
3 | C=C[C@]1(C)C[C@@H](OC(=O)CNC(=S)Nc2ccccc2)[C@]2(C)[C@H](C)CC[C@]3(CCC(=O)[C@H]32)[C@@H](C)[C@@H]1O |  |  | > 64 |  | 16 (≈ 31.2 µM) |  | 1 (≈ 1.95 µM) | 1 (≈ 1.95 µM) |  |  |  | 
4 | C=C[C@]1(C)C[C@@H](OC(=O)CNC(=O)NC(=O)c2ccccc2F)[C@]2(C)[C@H](C)CC[C@]3(CCC(=O)[C@H]32)[C@@H](C)[C@@H]1O |  |  | > 64 |  | 8 (≈ 14.7 µM) |  | 0.5 (≈ 0.921 µM) | 0.5 (≈ 0.921 µM) |  | 1 (≈ 1.84 µM) | 2 (≈ 3.69 µM) | > 8
5 | C=C[C@]1(C)C[C@@H](OC(=O)CNC(=O)NCCC)[C@]2(C)[C@H](C)CC[C@]3(CCC(=O)[C@H]32)[C@@H](C)[C@@H]1O |  |  | > 64 |  | 32 (≈ 69.2 µM) |  | 2 (≈ 4.32 µM) | 2 (≈ 4.32 µM) |  |  |  | 
6 | C=C[C@]1(C)C[C@@H](OC(=O)CNC(=O)NC(=O)c2cccc(F)c2)[C@]2(C)[C@H](C)CC[C@]3(CCC(=O)[C@H]32)[C@@H](C)[C@@H]1O | > 10 | > 10 | > 64 | > 10 | 16 (≈ 29.5 µM) | > 10 | 0.5 (≈ 0.921 µM) | 0.25 (≈ 0.461 µM) | > 10 |  |  | 
7 | C=C[C@]1(C)C[C@@H](OC(=O)CNC(=S)NC(C)=O)[C@]2(C)[C@H](C)CC[C@]3(CCC(=O)[C@H]32)[C@@H](C)[C@@H]1O |  |  | > 64 |  | 16 (≈ 33.4 µM) |  | 2 (≈ 4.18 µM) | 2 (≈ 4.18 µM) |  |  |  | 
8 | C=C[C@]1(C)C[C@@H](OC(=O)CNC(=S)NC(=O)c2ccc(Br)cc2)[C@]2(C)[C@H](C)CC[C@]3(CCC(=O)[C@H]32)[C@@H](C)[C@@H]1O |  |  | > 64 |  | 16 (≈ 25.8 µM) |  | 16 (≈ 25.8 µM) | 16 (≈ 25.8 µM) |  |  |  | 
9 | C=C[C@]1(C)C[C@@H](OC(=O)CNC(=S)NCCCCCCCCCCCCCCCCCC)[C@]2(C)[C@H](C)CC[C@]3(CCC(=O)[C@H]32)[C@@H](C)[C@@H]1O |  |  | > 64 |  | 32 (≈ 46.4 µM) |  | 4 (≈ 5.8 µM) | 2 (≈ 2.9 µM) |  |  |  | 
10 | C=C[C@]1(C)C[C@@H](OC(=O)CNC(=O)Nc2cc(Cl)cc(Cl)c2)[C@]2(C)[C@H](C)CC[C@]3(CCC(=O)[C@H]32)[C@@H](C)[C@@H]1O |  |  | > 64 |  | 32 (≈ 56.6 µM) |  | 0.5 (≈ 0.884 µM) | 0.5 (≈ 0.884 µM) |  |  |  | 
11 | C=C[C@]1(C)C[C@@H](OC(=O)CNC(=O)Nc2ccc(Br)cc2)[C@]2(C)[C@H](C)CC[C@]3(CCC(=O)[C@H]32)[C@@H](C)[C@@H]1O | > 10 | > 10 | > 64 | > 10 | 8 (≈ 13.9 µM) | > 10 |  |  | > 10 | 1 (≈ 1.74 µM) |  | 0.5 (≈ 0.869 µM)
12 | C=C[C@]1(C)C[C@@H](OC(=O)CNC(=S)Nc2ccccc2C)[C@]2(C)[C@H](C)CC[C@]3(CCC(=O)[C@H]32)[C@@H](C)[C@@H]1O |  |  | > 64 |  | 16 (≈ 30.4 µM) |  | 4 (≈ 7.59 µM) | 2 (≈ 3.8 µM) |  |  |  | 
13 | C=C[C@]1(C)C[C@@H](OC(=O)CNC(=S)NC(=O)c2ccc(Cl)cc2)[C@]2(C)[C@H](C)CC[C@]3(CCC(=O)[C@H]32)[C@@H](C)[C@@H]1O |  |  | > 64 |  | 8 (≈ 13.9 µM) |  | 16 (≈ 27.8 µM) | 16 (≈ 27.8 µM) |  |  |  | 
14 | C=C[C@]1(C)C[C@@H](OC(=O)CNC(=S)Nc2ccc(C(F)(F)F)cc2)[C@]2(C)[C@H](C)CC[C@]3(CCC(=O)[C@H]32)[C@@H](C)[C@@H]1O |  |  | > 64 |  | 8 (≈ 13.8 µM) |  | 1 (≈ 1.72 µM) | 1 (≈ 1.72 µM) |  |  |  | 
15 | C=C[C@]1(C)C[C@@H](OC(=O)CNC(=S)Nc2ccc(F)cc2)[C@]2(C)[C@H](C)CC[C@]3(CCC(=O)[C@H]32)[C@@H](C)[C@@H]1O |  |  | > 64 |  | 16 (≈ 30.1 µM) |  | 1 (≈ 1.88 µM) | 0.25 (≈ 0.471 µM) |  |  |  | 
16 | C=C[C@]1(C)C[C@@H](OC(=O)CNC(=S)NC(=O)c2ccc(F)cc2)[C@]2(C)[C@H](C)CC[C@]3(CCC(=O)[C@H]32)[C@@H](C)[C@@H]1O |  |  | > 64 |  | 8 (≈ 14.3 µM) |  | 4 (≈ 7.16 µM) | 4 (≈ 7.16 µM) |  |  |  | 
17 | C=C[C@]1(C)C[C@@H](OC(=O)CNC(=S)NC(=O)c2ccccc2)[C@]2(C)[C@H](C)CC[C@]3(CCC(=O)[C@H]32)[C@@H](C)[C@@H]1O |  |  | > 64 |  | 32 (≈ 59.2 µM) |  | > 64 | > 64 |  |  |  | 
18 | C=C[C@]1(C)C[C@@H](OC(=O)CNC(=S)Nc2ccc3ccccc3c2)[C@]2(C)[C@H](C)CC[C@]3(CCC(=O)[C@H]32)[C@@H](C)[C@@H]1O |  |  | > 64 |  | 32 (≈ 56.9 µM) |  | 16 (≈ 28.4 µM) | 4 (≈ 7.11 µM) |  |  |  | 
19 | C=C[C@]1(C)C[C@@H](OC(=O)CNC(=O)Nc2cccc3ccccc23)[C@]2(C)[C@H](C)CC[C@]3(CCC(=O)[C@H]32)[C@@H](C)[C@@H]1O |  |  | > 64 |  | 16 (≈ 29.3 µM) |  | 2 (≈ 3.66 µM) | 2 (≈ 3.66 µM) |  |  |  | 
20 | C=C[C@]1(C)C[C@@H](OC(=O)CNC(=S)Nc2ccc(OC)cc2)[C@]2(C)[C@H](C)CC[C@]3(CCC(=O)[C@H]32)[C@@H](C)[C@@H]1O |  |  | > 64 |  | 16 (≈ 29.5 µM) |  | 1 (≈ 1.84 µM) | 0.5 (≈ 0.921 µM) |  |  |  | 
21 | C=C[C@]1(C)C[C@@H](OC(=O)CNC(=O)Nc2ccccc2-c2ccccc2)[C@]2(C)[C@H](C)CC[C@]3(CCC(=O)[C@H]32)[C@@H](C)[C@@H]1O |  |  | > 64 |  | 32 (≈ 55.9 µM) |  | 4 (≈ 6.98 µM) | 4 (≈ 6.98 µM) |  |  |  | 
22 | C=C[C@]1(C)C[C@@H](OC(=O)CNC(=O)Nc2ccccc2)[C@]2(C)[C@H](C)CC[C@]3(CCC(=O)[C@H]32)[C@@H](C)[C@@H]1O |  |  | > 64 |  | 32 (≈ 64.4 µM) |  | 0.5 (≈ 1.01 µM) | 0.5 (≈ 1.01 µM) |  |  |  | 
23 | C=C[C@]1(C)C[C@@H](OC(=O)CNC(=O)Nc2ccccc2Cl)[C@]2(C)[C@H](C)CC[C@]3(CCC(=O)[C@H]32)[C@@H](C)[C@@H]1O |  |  | > 64 |  | 8 (≈ 15.1 µM) |  | 0.5 (≈ 0.941 µM) | 0.5 (≈ 0.941 µM) |  |  |  | 
24 | C=C[C@]1(C)C[C@@H](OC(=O)CNC(=O)NC2CCCCC2)[C@]2(C)[C@H](C)CC[C@]3(CCC(=O)[C@H]32)[C@@H](C)[C@@H]1O |  |  | > 64 |  | 8 (≈ 15.9 µM) |  | 2 (≈ 3.98 µM) | 2 (≈ 3.98 µM) |  |  |  | 
25 | C=C[C@]1(C)C[C@@H](OC(=O)CNC(=O)NCC)[C@]2(C)[C@H](C)CC[C@]3(CCC(=O)[C@H]32)[C@@H](C)[C@@H]1O |  |  | > 64 |  | 32 (≈ 71.3 µM) |  | 2 (≈ 4.46 µM) | 2 (≈ 4.46 µM) |  |  |  | 
26 | C=C[C@]1(C)C[C@@H](OC(=O)CNC(=S)NC2CCCCC2)[C@]2(C)[C@H](C)CC[C@]3(CCC(=O)[C@H]32)[C@@H](C)[C@@H]1O |  |  | > 64 |  | 32 (≈ 61.7 µM) |  | 1 (≈ 1.93 µM) | 1 (≈ 1.93 µM) |  |  |  | 
27 | C=C[C@]1(C)C[C@@H](OC(=O)CNC(=O)Nc2cccc(Cl)c2)[C@]2(C)[C@H](C)CC[C@]3(CCC(=O)[C@H]32)[C@@H](C)[C@@H]1O |  |  | > 64 |  | 8 (≈ 15.1 µM) |  | 1 (≈ 1.88 µM) | 0.5 (≈ 0.941 µM) |  |  |  | 

From ChEMBL document CHEMBL5143602, “Design, synthesis and antibacterial evaluation of pleuromutilin derivatives” (Bioorg Med Chem, 2022)
